Results as given in patent publication US10023562B2, “Heteroaryl substituted pyridyl compounds useful as kinase modulators” (BRISTOL-MYERS SQUIBB COMPANY, priority 2012, dated 2018).
Read-outs that look alike come from different tables or passages of the source.

Tested on: TLR2 induced IL-6 in peripheral blood mononuclear cells (PBMCs)
Test: PBMC TLR2 Induced IL-6 Assay
Assay type: cell-based
Details: 10 μg/ml lipoteichoic acid for 5 hours, IL-6 by ELISA; for IC50: values without asterisk, read-out: Cell IC50
Method: PBMC TLR2 Induced IL-6 Assay Peripheral blood mononuclear cells (PBMCs) were isolated from human blood containing the anti-coagulant EDTA (2.5 mM) by centrifugation over a FICOLL® gradient. […] At the end of the culture, plates were centrifuged at 1800 rpm for 10 minutes to pellet the cells. Supernatants were harvested and analyzed for IL-6 levels by ELISA (BD Biosciences, San Jose, Calif.).

[1] = Homo sapiens, PBMC, 5 h, values marked * are EC50, read-out: Cell EC50 (values marked *)

Row | SMILES | EC50 [1] | IC50 (Homo sapiens, PBMC, 5 h) | further results
1 | COC(=O)N[C@H]1CC[C@H](NC(=O)c2cnc(Nc3ncc(C#N)cc3F)cc2NC(C)C)CC1 [Example 165] | 279 nM | – | –
2 | CC(C)(O)[C@H](F)CNC(=O)c1cnc(Nc2ncc(C#N)cc2Cl)cc1NC1CCOCC1 [Example 13, 6-((3-chloro-5-cyano-2-pyridinyl)amino)-N-((2R)-2-fluoro-3-hydroxy-3-methylbutyl)-4-(tetrahydro-2H-pyran-4-ylamino)nicotinamide] | – | 420 nM | –
3 | CC(C)(O)[C@H](F)CNC(=O)c1cnc(Nc2ncc(C#N)cc2F)cc1NC1CCCOC1 (stereo partly shown) [Example 98] | – | – | IC50 (human PBMC): 690 nM
4 | CC(=O)N[C@H]1CC[C@H](NC(=O)c2cnc(Nc3ncncc3Cl)cc2NC(C)C)CC1 [Example 106] | 433 nM | – | –
5 | CCn1ncc(Nc2cc(NC(C)C)c(C(=O)NC[C@@H](F)C(C)(C)O)cn2)n1 [Example 72] | 246 nM | – | –
6 | CCCNc1cc(Nc2ncc(C#N)cc2F)ncc1C(=O)NC[C@@H](F)C(C)(C)O [Example 139] | 114 nM | – | –
7 | CC(C)(O)[C@H](F)CNC(=O)c1cnc(Nc2ncc(C#N)cc2Cl)cc1NC1CCCCC1O (stereo partly shown) [Example 104] | 199 nM | – | –
8 | CC(=O)N[C@H]1CC[C@H](NC(=O)c2cnc(Nc3ncc(C#N)cc3Cl)cc2NC(C)C)CC1 [Example 15, N-((1r,4r)-4-acetamidocyclohexyl)-6-((3-chloro-5-cyanopyridin-2-yl)amino)-4-(isopropylamino)nicotinamide] | – | 245 nM | –
9 | CC(C)(O)[C@H](F)CNC(=O)c1cnc(Nc2ncc(C#N)cc2Cl)cc1N[C@H]1CC[C@@](C)(O)CC1 [Example 152] | 260 nM | – | –
10 | CC(C)(O)C(F)(F)CNC(=O)c1cnc(Nc2ncc(C#N)cc2Cl)cc1NC1CC1 [Example 43, 6-((3-chloro-5-cyanopyridin-2-yl)amino)-4-(cyclopropylamino)-N-(2,2-difluoro-3-hydroxy-3-methylbutyl)nicotinamide] | 169 nM | – | –
11 | C[C@@H](CO)Nc1cc(Nc2ncc(C#N)cn2)ncc1C(=O)NC[C@@H](F)C(C)(C)O [Example 101] | 380 nM | – | –
12 | CNC(=O)[C@H]1CC[C@H](NC(=O)c2cnc(Nc3ncc(C#N)cc3Cl)cc2NC(C)C)CC1 [Example 16, 6-((3-chloro-5-cyanopyridin-2-yl)amino)-4-(isopropylamino)-N—((1r,4r)-4-(methylcarbamoyl)cyclohexyl)nicotinamide] | – | 212 nM | –
13 | CC(C)(O)[C@H](F)CNC(=O)c1cnc(Nc2nc(-c3cccnc3)cs2)cc1NC1CC1 [Example 23, 4-(cyclopropylamino)-N-((2R)-2-fluoro-3-hydroxy-3-methylbutyl)-6-((4-(3-pyridinyl)-1,3-thiazol-2-yl)amino)nicotinamide] | – | 32 nM | –
14 | CC(Nc1cc(Nc2ncc(C#N)cn2)ncc1C(=O)NC[C@@H](F)C(C)(C)O)C1CC1 (stereo partly shown) [Example 163] | 459 nM | – | –
15 | CC(C)(O)[C@H](F)CNC(=O)c1cnc(Nc2ncc(C#N)cc2Cl)cc1NCC(F)(F)F [Example 65] | 156 nM | – | –
16 | CNC(=O)c1cnc(Nc2ccc(C#N)cn2)cc1N[C@@H](c1ccccc1)[C@H](O)CO [Example 1, 6-((5-cyano-2-pyridinyl)amino)-4-(((1S,2S)-2,3-dihydroxy-1-phenylpropyl)amino)-N-methylnicotinamide] | – | 550 nM | –
17 | COC(C)(C)[C@H](F)CNC(=O)c1cnc(Nc2ncc(C#N)cc2F)cc1NC(C)C [Example 36] | 49 nM | – | –
18 | CC(C)(O)[C@H](F)CNC(=O)c1cnc(Nc2ccncn2)cc1NC1CC1 [Example 21, 4-(cyclopropylamino)-N-((2R)-2-fluoro-3-hydroxy-3-methylbutyl)-6-(4-pyrimidinylamino)nicotinamide] | – | 331 nM | –
19 | CC(C)(O)[C@H](F)CNC(=O)c1cnc(Nc2ncc(C#N)cc2F)cc1NC1CCC(F)C1 (stereo partly shown) [Example 114] | 56 nM | – | –
20 | CC(=O)N1CCC(NC(=O)c2cnc(Nc3ccc(C#N)cn3)cc2NC(C)C)CC1 [Example 8, N-(1-acetyl-4-piperidinyl)-6-((5-cyano-2-pyridinyl)amino)-4-(isopropylamino)nicotinamide] | – | 433 nM | –

Row | SMILES | EC50 [1] | IC50 (Homo sapiens, PBMC, 5 h) | further results
21 | Cc1cnc(Nc2cc(NC(C)C)c(C(=O)NC[C@@H](F)C(C)(C)O)cn2)c(F)c1 [Example 129] | – | – | EC50 (human PBMC, values marked * are EC50, read-out: Cell EC50 (values marked *)): 398 nM
22 | CC(C)Nc1cc(Nc2ncc(C#N)cc2F)ncc1C(=O)NC[C@@H](F)C(C)(C)O [Example 17, 6-((5-cyano-3-fluoro-2-pyridinyl)amino)-N-((2R)-2-fluoro-3-hydroxy-3-methylbutyl)-4-(isopropylamino)nicotinamide] | – | 382 nM | –
23 | CNC(=O)[C@H]1CC[C@H](NC(=O)c2cnc(Nc3ncc(C#N)cc3Cl)cc2NC2CC2)CC1 [Example 60] | – | 52 nM | –
24 | CCNc1cc(Nc2ncc(C#N)cc2Cl)ncc1C(=O)NC[C@@H](F)C(C)(C)O [Example 51] | – | 99 nM | –
25 | CC(C)NC(=O)N[C@H](C)CCNC(=O)c1cnc(Nc2ncc(C#N)cc2F)cc1NC(C)C [Example 29, (R)-6-((5-cyano-3-fluoropyridin-2-yl)amino)-4-(isopropylamino)-N-(3-(3-isopropylureido)butyl)nicotinamide] | – | 111 nM | –
26 | CC(C)Nc1cc(Nc2ccnc(N)n2)ncc1C(=O)NC[C@@H](F)C(C)(C)O [Example 131] | 137 nM | – | –
27 | CS(=O)(=O)[C@H]1CC[C@H](NC(=O)c2cnc(Nc3ncc(C#N)cc3Cl)cc2NC2CCOCC2)CC1 [Example 149] | 193 nM | – | –
28 | CC(=O)Nc1nc(Nc2cc(NC(C)C)c(C(=O)NC[C@@H](F)C(C)(C)O)cn2)ncc1C#N [Example 34] | 122 nM | – | –
29 | CC(=O)N[C@H]1CC[C@H](NC(=O)c2cnc(Nc3ncc(C#N)cc3Cl)cc2NC2CC2)CC1 [Example 67] | 457 nM | – | –
30 | CC(C)Nc1cc(Nc2ncc(C#N)cc2F)ncc1C(=O)N[C@H]1CC[C@H](C(=O)NC(C)C)CC1 [Example 116] | 130 nM | – | –
31 | CCCNc1cc(Nc2ncc(C#N)cc2Cl)ncc1C(=O)NC[C@@H](F)C(C)(C)O [Example 138] | 108 nM | – | –
32 | Cn1nnnc1-c1ccc(Nc2cc(Nc3ncc(C#N)cn3)ncc2C(=O)NC[C@@H](F)C(C)(C)O)cc1 [Example 147] | 439 nM | – | –
33 | CC(C)(O)[C@H](F)CNC(=O)c1cnc(Nc2ncncc2Cl)cc1NC1CCOCC1 [Example 95] | 501 nM | – | –
34 | CC(C)Nc1cc(Nc2nc(OC3CCNCC3)ncc2Cl)ncc1C(=O)NC[C@@H](F)C(C)(C)O [Example 41] | 160 nM | – | –
35 | CC(C)Nc1cc(Nc2ccnc(NC3CC3)n2)ncc1C(=O)NC[C@@H](F)C(C)(C)O [Example 24, 6-((2-(cyclopropylamino)-4-pyrimidinyl)amino)-N-((2R)-2-fluoro-3-hydroxy-3-methylbutyl)-4-(isopropylamino)nicotinamide] | – | 312 nM | –
36 | CC(=O)N[C@H]1CC[C@H](NC(=O)c2cnc(Nc3ccc(C#N)cn3)cc2NC(C)C)CC1 [Example 9, N-(trans-4-acetamidocyclohexyl)-6-((5-cyano-2-pyridinyl)amino)-4-(isopropylamino)nicotinamide] | – | 116 nM | –
37 | CC(C)(O)[C@H](F)CNC(=O)c1cnc(Nc2ncc(C#N)cc2F)cc1NCC(F)(F)C(C)(C)O [Example 126] | 83 nM | – | –
38 | CC(C)(F)CNc1cc(Nc2ncc(C#N)cc2Cl)ncc1C(=O)NC[C@@H](F)C(C)(C)O [Example 46] | 206 nM | – | –
39 | CC(C)(F)CNc1cc(Nc2ncc(C#N)cc2Cl)ncc1C(=O)NC1CCC(C(C)(C)O)CC1 (stereo not shown) [Example 103] | 195 nM | – | –
40 | CC(C)(O)[C@H](F)CNC(=O)c1cnc(Nc2ncc(C#N)cc2Cl)cc1NC12CC(C1)C2 [Example 90] | 243 nM | – | –
